Consider 22 substances from US20100317565A1, “Novel Peptides and Their Use for the Treatment of Edema” (Rentschler Beteiligungs GmbH, priority 2007, published 2010).

“Also recorded” adds a separate entry of the source. Bridge positions count the residues as written; N and C are the ends. Ends that are not written are not given here.

The test system of test [1] is polarized Calu-3 cell monolayers. The experiment in a line: Transepithelial electrical resistance (TEER) assay on polarized Calu-3 cell monolayers. To be noted: peptide 250 μM added to apical and basolateral compartment; peak TEER value as percent of Tip peptide (=100%). It counts as cell-based, human.
Test [2] deals with isolated blood perfused flooded rat lung (E. coli-LPS induced lung edema). Kind of test: Endotoxin induced lung injury in the isolated blood perfused flooded rat lung model. It counts as in vivo, male Spraque-Dawley rats. To be noted: P5 3 mg or P9 10 mg in 1 ml saline i.t.; for Attenuation of LPS-induced total lung weight gain / lung edema production: LPS 3 mg/kg i.t., 18 h, 2-h ex-vivo reperfusion; for Inspiratory resistive work / Static and dynamic lung compliance: LPS-treated lungs; for Inspiratory resistive work / Static and dynamic lung compliance / Effect on lung wet/dry weight ratio: 2-h reperfusion; for Effect on lung wet/dry weight ratio: versus LPS+saline treated lungs. The procedure:
In the “Endotoxin induced lung injury in the isolated blood perfused flooded rat lung model”, which is an ex vivo permeability lung edema model, E. coli-LPS is instilled intratracheally and after […] the lung is isolated and placed in an artificial thorax chamber. Then, perfusion occurs with autolo-gous blood. After an one hour stabilisation period, the test compound (in 1 ml saline) is instilled intratra-cheally. Lung parameters are measured over 2 hours. The main read-outs are lung-weight and parameters of lung mechanics and hemodynamics.
In the “Endotoxin induced lung injury in the isolated blood perfused flooded rat lung model”, which is an ex vivo permeability lung edema model, E. coli-LPS is instilled intratracheally and after […] the lung is isolated and placed in an artificial thorax chamber. Then, perfusion occurs with autologous blood. After an one hour stabilisation period, the test compound (in 1 ml saline) is instilled intratracheally. Lung parameters are measured over 2 hours. The primary readout parameters of this […] model are wet weight of lung and heart and P/V curves which are parameters of lung mechanics and hemodynamics.
In this ex vivo lung edema model, E. coli-LPS (3 mg/kg) was instilled intratracheally into male Spraque-Dawley rats. After 18 h the lung was isolated and placed in an artificial thorax chamber. Then, perfusion occurred with autologous blood. After one hour stabilisation period, the test compound (in 1 ml saline) was instilled intratracheally. Lung parameters were measured over 2 h. The main read-outs were lung-weight and parameters of lung mechanics and hemodynamics. • Number of rats: n=7-8 per group • Data are means±SEM • Treatment groups:
? P9 • Perfusion conditions: • imposed pulmonary artery perfusion pressure: 20 mmHg • imposed left atrial pressure: 10 mmHg • resulting pulmonary blood flow: ˜6-9 ml/min • resulting pulmonary microvascular pressure: ˜14.5 mmHg • imposed tidal volume: 7 ml/kg; respiratory rate: 30 bpm • imposed positive end-expiratory airway pressure: 3.0 cmH2O-arterial pH: 7.5 • adjusted hematocrit: 28% (autologous blood)

Test [3] relates to in situ mouse lung. The following applies: cited from earlier work.
Test [4] concerns rat lung. The following applies: ex vivo and in vivo rat lung model; cited from earlier work.
In test [5] the test system is microvascular endothelial cells. To be noted: cited from earlier work.

Take “46 (CGQRETPDGAEAKPWYC; anti-edema peptide) [compound 46]”: in test [1], the “Activity in TEER assay (c = 250 μM) (% of Tip activity)” value (“Activity … (% of Tip activity)” for short) is given as 130.4 % of Tip activity. Take “SPEGGEGGGGGSPEGGEGGGGGSPEGGE (anti-edema peptide) [SEQ ID NO: 52]”: in test [2] (listed as P9), the “Attenuation of LPS-induced total lung weight gain / lung edema production” value is reported as “attenuating the LPS-induced total lung weight gain”. Further, in test [2], the Inspiratory resistive work result was “especially reduces”; the “Static and dynamic lung compliance” value is on record as “markedly ameliorates”; the “Effect on lung wet/dry weight ratio” value is “less pronounced”. Turning to “20 (GGSPSQRETPEGAEAKPWYGGSPSQRETPEGAEAKPWYGGSPSQRETPEGAEAKPWY; anti-edema peptide) [compound 20]”, the “Activity … (% of Tip activity)” value in test [1] is 539.0 % of Tip activity. In the case of “2 (CGTKPIELGPDEPKAVC; disulfide 1-17 (inferred)) [compound 2]”, the “Activity … (% of Tip activity)” value in test [1] is listed as 130.1 % of Tip activity. Turning to “42 (CGQRESPDGGDAKPWYC; anti-edema peptide) [compound 42]”, the “Activity … (% of Tip activity)” value in test [1] was 123.6 % of Tip activity. On to “36 (CGQRESPEGADAKPWYC; anti-edema peptide) [compound 36]”, for which, in test [1], the “Activity … (% of Tip activity)” value is 119.4 % of Tip activity. With “CGSPEGGDSPEGGDSPEGGDGC (anti-edema peptide) [Peptide P5]”, in test [2], the “Attenuation of LPS-induced total lung weight gain / lung edema production” value is given as “significantly attenuate; also recorded: attenuating the LPS-induced total lung weight gain”; the Inspiratory resistive work result was “especially reduces”; the “Static and dynamic lung compliance” value was “markedly ameliorates”; the “Effect on lung wet/dry weight ratio” value is “statistically significantly different from LPS+saline treated lungs”. Consider “45 (CGQRETPDGADAKPWYC; anti-edema peptide) [compound 45]”, for which the “Activity … (% of Tip activity)” value in test [1] is 172.4 % of Tip activity. As for “55 (CGSPEGGDGGGGGSPEGGDGGGGGSPEGGDGC; anti-edema peptide) [compound 55]”, the “Activity … (% of Tip activity)” value in test [1] is recorded as 146.0 % of Tip activity.

With CGQRETPEGAEAKPWYC [SEQ ID NO: 61], the Alveolar fluid reabsorption result in test [3] and in test [4] was “up-regulated” in each case. In addition, in test [5], the Membrane conductance result was “increased”. In the case of “50 (CGGGGGTPEGAEGGGGGTPEGAEGGGGGTPEGAEGC; anti-edema peptide) [compound 50]”, the “Activity … (% of Tip activity)” value in test [1] is 156.5 % of Tip activity. Take “49 (CGTPEGAETPEGAETPEGAEGC; anti-edema peptide) [compound 49]”: in test [1], the “Activity … (% of Tip activity)” value is given as 139.9 % of Tip activity. Consider “11 (TPEGAEGGGGGTPEGAEGGGGGTPEGAE; anti-edema peptide) [compound 11]”, for which, in test [1], the “Activity … (% of Tip activity)” value is given as 80.0 % of Tip activity. On to “43 (CGQRETPEGADAKPWYC; anti-edema peptide) [compound 43]”, for which the “Activity … (% of Tip activity)” value in test [1] is 139.8 % of Tip activity. “54 (SPEGGDGGGGGSPEGGDGGGGGSPEGGD; anti-edema peptide) [compound 54]”: the “Activity … (% of Tip activity)” value in test [1] is listed as 90.7 % of Tip activity. In the case of “39 (CGQRESPDGAEAKPWYC; anti-edema peptide) [compound 39]”, the “Activity … (% of Tip activity)” value in test [1] is given as 88.8 % of Tip activity. Regarding “51 (CGTPEGAETPEGAETPEGAETPEGAETPEGAEGC; anti-edema peptide) [compound 51]”, the “Activity … (% of Tip activity)” value in test [1] is 146.6 % of Tip activity.

Take “40 (CGQRESPDGADAKPWYC; anti-edema peptide) [compound 40]”: the “Activity … (% of Tip activity)” value in test [1] is 127.7 % of Tip activity. For the substance “53 (CGSPEGGEGGGGGSPEGGEGGGGGSPEGGEGC; anti-edema peptide) [compound 53]”, the “Activity … (% of Tip activity)” value in test [1] is reported as 131.7 % of Tip activity.

Take “52 (SPEGGEGGGGGSPEGGEGGGGGSPEGGE; anti-edema peptide) [compound 52]”: in test [1], the “Activity … (% of Tip activity)” value is listed as 87.1 % of Tip activity. Take “35 (CGQRESPEGAEAKPWYC; anti-edema peptide) [compound 35]”: in test [1], the “Activity … (% of Tip activity)” value is 120.9 % of Tip activity.

On to “5 (TPEGAETPEGAETPEGAETPEGAETPEGAE; anti-edema peptide) [compound 5]”, for which, in test [1], the “Activity … (% of Tip activity)” value is 93.0 % of Tip activity.
